Earlier results on 1 compound are cited in patent publication US10813957B2, “Engineered oncolytic viruses containing hyper-binding sites to sequester and suppress activity of oncogenic transcription factors as a novel treatment for human cancer” (priority 2016, dated 2020).

Each structure is given as a SMILES string.

For the data set the following is noted: background statement.

On to `NC(=O)OC[C@H]1c2c(O)cc(C=O)cc2N2CC3N[C@@H]3[C@]1(O)O2` (stereo partly shown) [FR900482], for which the toxicity in humans result is on record as “high toxicity”.
